In BindingDB's records for doi:10.1074/jbc.271.28.16435 (Merck Research Laboratories, 1996):

Experiments:
[1] = target: T1, Neuropeptide Y receptor type 5 (Mus musculus, UniProt O70342)
T1 sequence (O70342 whole entry): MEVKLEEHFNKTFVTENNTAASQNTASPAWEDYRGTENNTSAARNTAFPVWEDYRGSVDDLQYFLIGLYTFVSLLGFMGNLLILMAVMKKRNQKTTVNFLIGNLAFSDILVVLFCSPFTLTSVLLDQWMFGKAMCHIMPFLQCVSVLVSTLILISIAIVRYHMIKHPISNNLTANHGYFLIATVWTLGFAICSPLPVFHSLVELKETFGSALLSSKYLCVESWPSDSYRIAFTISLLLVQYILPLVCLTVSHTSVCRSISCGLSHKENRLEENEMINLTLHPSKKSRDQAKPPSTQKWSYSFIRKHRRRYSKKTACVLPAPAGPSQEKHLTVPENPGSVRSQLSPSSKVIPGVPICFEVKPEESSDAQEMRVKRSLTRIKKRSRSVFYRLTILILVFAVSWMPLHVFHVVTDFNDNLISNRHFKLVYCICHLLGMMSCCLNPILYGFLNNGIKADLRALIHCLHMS

[2] = target: T2, Neuropeptide Y receptor type 1 (Mus musculus, UniProt Q04573)
T2 sequence (Q04573 whole entry): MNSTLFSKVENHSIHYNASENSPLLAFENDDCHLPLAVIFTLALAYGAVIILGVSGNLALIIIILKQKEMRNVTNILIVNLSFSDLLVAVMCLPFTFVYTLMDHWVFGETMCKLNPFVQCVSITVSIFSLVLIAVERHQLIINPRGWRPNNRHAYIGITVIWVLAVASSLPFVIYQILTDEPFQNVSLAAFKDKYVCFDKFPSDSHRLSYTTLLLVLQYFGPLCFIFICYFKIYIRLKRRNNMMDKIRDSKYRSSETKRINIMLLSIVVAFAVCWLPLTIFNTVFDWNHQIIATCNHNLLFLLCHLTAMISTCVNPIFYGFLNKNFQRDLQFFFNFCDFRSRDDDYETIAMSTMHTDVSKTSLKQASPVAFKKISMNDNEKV

CC[C@H](C)[C@H](NC(=O)[C@H](Cc1ccc(O)cc1)NC(=O)[C@H](CCCNC(=N)N)NC(=O)[C@H](CCCNC(=N)N)NC(=O)[C@H](CC(C)C)NC(=O)[C@H](CC(=O)O)NC(=O)[C@H](C)NC(=O)[C@H](C)NC(=O)[C@H](Cc1ccc(O)cc1)NC(=O)[C@H](CCC(N)=O)NC(=O)[C@H](C)NC(=O)[C@H](CCSC)NC(=O)[C@H](CCC(N)=O)NC(=O)[C@H](CCC(=O)O)NC(=O)[C@@H]1CCCN1C(=O)[C@@H](NC(=O)[C@H](C)NC(=O)[C@H](CC(N)=O)NC(=O)[C@H](CC(=O)O)NC(=O)CNC(=O)[C@@H]1CCCN1C(=O)[C@H](Cc1ccc(O)cc1)NC(=O)[C@@H](NC(=O)[C@@H]1CCCN1C(=O)[C@H](CCC(=O)O)NC(=O)[C@H](CC(C)C)NC(=O)[C@@H]1CCCN1C(=O)[C@H](C)N)C(C)C)[C@@H](C)O)C(=O)N[C@@H](CC(N)=O)C(=O)N[C@@H](CCSC)C(=O)N[C@@H](CC(C)C)C(=O)N[C@H](C(=O)N[C@@H](CCCNC(=N)N)C(=O)N1CCC[C@H]1C(=O)N[C@@H](CCCNC(=N)N)C(=O)N[C@@H](Cc1ccc(O)cc1)C(N)=O)[C@@H](C)O [CAS_59763-91-6]
Ki [1]: 1000 nM | Ki [2]: 122 nM
